Peptide text beside a SMILES is read from it.
Experiments:
[1] = test system: guinea pig trachea smooth muscle; assay: Bronchodilator (relaxant) effect on isolated guinea pig tracheal rings; assay type: cell-based; settings: for Relative Potency: guinea pig trachea, relative to VIP = 100%; for EC50: guinea pig tracheal rings, relaxation as % of maximum response to VIP 10^-6 M, three tissues pooled, linear regression, read-out: EC50 (M), agonist activity, bronchodilator effect
From the text: The bronchodilatory effect of VIP analogs was studied in a model utilizing guinea pig trachea. Wasserman, M. A. et al. "Comparative In Vitro Tracheal Relaxant Effects of Porcine and Hen VIP" in Vasoactive Intestinal Peptide ed. Said, S.I., Raven Press (New York, 1982).
All tissues were taken from male albino guinea pigs weighing 400-600 g, anesthetized with urethane 2 g/kg i.p. After exsanguination the trachea was removed and divided into four ring segments (3 mm length). Each ring was suspended by two 30 guage stainless steel wires in a 10 ml jacket tissue bath and attached via 4-0 silk thread to a Grass force displacement transducer (model FT03C, Grass Instrument Co., Quincy, MA), for isometric recording of tension. The smooth muscle was bathed in modified Krebs solution of the following composition: NaCl, 120 mM; KCl, 4.7 mM; CaCl2, 2.5 mM; MgSO4.7H2 O; 1.2 mM; NaHCO3, 25 mM; KH2 PO4 monobasic, 1.2 mM; and dextrose, 10 mM. Tissue baths were maintained at 37.5° C. and constantly bubbled with 95% O2 and 5% CO2. Responses were recorded on an 8 channel and 4 channel Hewlett-Packard (model 7702B and 7754A, respectively) recorder (Hewlett Packard, Paramus, NJ). Tracheal rings were placed under a resting tension of 1.5 g which was determined to be at or near optimal in preliminary experiments. Frequent readjustments of tension were required during the 60 min. stabilization period which followed. Tissues were rinsed at 15 min. intervals.
(§1) Cumulative concentration response curves were obtained for each tissue by successive […] in the bath concentration of VIP or potential VIP agonists according to the method of VanRossum J. M., Arch. Int Pharmacodyn, 143, 299-330 (1963). Only one cummulative dose response curve was obtained on a single piece of tissue. To minimize variability between tissues, relaxant responses are expressed as a percentage of the maximum response obtainable to VIP (10^-6 M=100%) added at the end of the concentration response curve. Responses obtained from three tissues were pooled and EC50 values were determined by linear regression.

[2] = test system: Human Bronchial Smooth Muscle; assay: Relaxation of isolated human bronchial smooth muscle rings; assay type: cell-based; settings: human bronchial smooth muscle; relative to VIP (1-28) = 100%
Procedure: Human bronchial smooth muscle or intra-pulmonary arteries were obtained from surgical section or autopsy from Overlook Hospital, Summit, N.J. Airway or vascular rings were suspended by two 30 gauge stainless steel wires in a 10 ml jacket tissue bath and attached via 4-0 silk thread to a Grass forcer displacement transducer (model FT030C, Grass Instrument Co., Quincy, MA), for isometric recording of tension. The smooth muscle was bathed in modified Kreb's solution of the following composition: NaCl, 120 mM; KCl, 4.7 mM; CaCL2, 2.5 mM; MgSO4.7H2 O; 1.2 mM; NaHCO3, 25 mM; KH2 PO4 monobasic, 1.2 mM; and dextrose, 10 mM. Tissue baths were maintained at 37.5° C. and constantly bubbled with 95% O2 and 5% CO2. Responses were recorded on a 8 channel and 4 channel Hewlett-Packard (model 7702B and 7754A, respectively) recorder (Hewlett Packard, Paramus, NJ). All tissues were placed under a resting tension (airway, 1.5 g; vascular, 1 g) which was determined to be near optimal in preliminary experiments. Frequent readjustments of tension were required during the 120-180 min. stabilization period which followed. Tissues were rinsed at 15 min. intervals. Vascular tissues were primed once with phenylephrine (10^-5 M) and washed for an additional hour. Steady state contractions of vacular tissues were obtained with phenylephrine (10^-5 M) while airway tissues were precontracted with histamine (3×10^-4 M).
as §1, with “noted above.” for “J. M., Arch. Int Pharmacodyn, 143, 299-330 (1963).”, “cumulative” for “cummulative”, “were” for “are”, “papaverine (vascular, 10^-4 M=100%) or isoproterenol (airway, 10^-4” for “VIP (10^-6”, “curve. […]” for “curve.”, “four” for “three”

| SMILES | Relative Potency [1] [%] | EC50 [1] [M] | Rel. Potency [2] [%] |
| --- | --- | --- | --- |
| CCCC[C@H](NC(=O)[C@H](CCC(N)=O)NC(=O)[C@H](CCCCN)NC(=O)[C@H](CCCNC(=N)N)NC(=O)[C@H](CC(C)C)NC(=O)[C@H](CCCCN)NC(=O)[C@@H](NC(=O)[C@H](Cc1ccc(O)cc1)NC(=O)[C@H](CC(N)=O)NC(=O)[C@H](CC(=O)O)NC(=O)[C@@H](NC(=O)[C@H](Cc1ccccc1)NC(=O)[C@@H](NC(=O)[C@H](C)NC(=O)[C@H](CC(=O)O)NC(=O)[C@H](CO)NC(=O)[C@@H](N)Cc1c[nH]cn1)C(C)C)[C@@H](C)O)[C@@H](C)O)C(=O)N[C@@H](C)C(=O)N[C@H](C(=O)N[C@@H](CCCCN)C(=O)N[C@@H](CCCCN)C(=O)N[C@@H](Cc1ccc(O)cc1)C(=O)N[C@@H](CC(C)C)C(=O)N[C@@H](CC(N)=O)C(=O)N[C@@H](CO)C(=O)N[C@H](C(=O)N[C@@H](CC(C)C)C(=O)N[C@@H](CC(N)=O)C(N)=O)[C@@H](C)CC)C(C)C [(Lys^12, Nle^17)--VIP, (Lys^12, Nle^17)-VIP] (HELM PEPTIDE1{H.S.D.A.V.F.T.D.N.Y.T.K.L.R.K.Q.[Nle].A.V.K.K.Y.L.N.S.I.L.N.[am]}$$$$V2.0) | 263 | 3.8e-09 | 165 |
| CCCC[C@H](NC(=O)[C@H](CCC(N)=O)NC(=O)[C@H](CCCCN)NC(=O)[C@H](CCCNC(=N)N)NC(=O)[C@H](CC(C)C)NC(=O)[C@H](CCCNC(=N)N)NC(=O)[C@@H](NC(=O)[C@H](Cc1ccc(O)cc1)NC(=O)[C@H](CC(N)=O)NC(=O)[C@H](CC(=O)O)NC(=O)[C@@H](NC(=O)[C@H](Cc1ccccc1)NC(=O)[C@@H](NC(=O)[C@H](C)NC(=O)[C@H](CC(=O)O)NC(=O)[C@H](CO)NC(=O)[C@@H](N)Cc1c[nH]cn1)C(C)C)[C@@H](C)O)[C@@H](C)O)C(=O)N[C@@H](C)C(=O)N[C@H](C(=O)N[C@@H](CCCCN)C(=O)N[C@@H](CCCCN)C(=O)N[C@@H](Cc1ccc(O)cc1)C(=O)N[C@@H](CC(C)C)C(=O)N[C@@H](CC(N)=O)C(=O)N[C@@H](CO)C(=O)N[C@H](C(=O)N[C@@H](CC(C)C)C(=O)N[C@@H](CC(N)=O)C(N)=O)[C@@H](C)CC)C(C)C [(Nle^17)--VIP, (Nle^17)VIP] | 156 | 6.4e-09 | 215 |
| CCCC[C@H](NC(=O)[C@H](CCC(N)=O)NC(=O)[C@H](CCCCN)NC(=O)[C@H](CCCNC(=N)N)NC(=O)[C@H](CC(C)C)NC(=O)[C@H](CCCNC(=N)N)NC(=O)[C@@H](NC(=O)[C@H](Cc1ccc(O)cc1)NC(=O)[C@H](CC(N)=O)NC(=O)[C@H](CC(=O)O)NC(=O)[C@@H](NC(=O)[C@H](Cc1ccccc1)NC(=O)[C@@H](NC(=O)[C@H](C)NC(=O)[C@H](CC(=O)O)NC(=O)[C@H](CO)NC(=O)[C@@H](N)Cc1c[nH]cn1)C(C)C)[C@@H](C)O)[C@@H](C)O)C(=O)N[C@@H](C)C(=O)N[C@H](C(=O)N[C@@H](CCCCN)C(=O)N[C@@H](CCCCN)C(=O)N[C@@H](Cc1ccc(O)cc1)C(=O)N[C@@H](CC(C)C)C(=O)N[C@@H](CC(N)=O)C(=O)N[C@@H](CO)C(=O)N[C@H](C(=O)N[C@@H](CC(C)C)C(=O)N[C@H](C(N)=O)[C@@H](C)O)C(C)C)C(C)C [(Nle^17, Val^26, Thr^28)--VIP, (Nle^17, Val^26, Thr^28)VIP] (HELM PEPTIDE1{H.S.D.A.V.F.T.D.N.Y.T.R.L.R.K.Q.[Nle].A.V.K.K.Y.L.N.S.V.L.T.[am]}$$$$V2.0) | 208 | 4.8e-09 | – |
| CCCC[C@H](NC(=O)[C@H](CCC(N)=O)NC(=O)[C@H](CCCCN)NC(=O)[C@H](CCCNC(=N)N)NC(=O)[C@H](CC(C)C)NC(=O)[C@H](CCCN)NC(=O)[C@@H](NC(=O)[C@H](Cc1ccc(O)cc1)NC(=O)[C@H](CC(N)=O)NC(=O)[C@H](CC(=O)O)NC(=O)[C@@H](NC(=O)[C@H](Cc1ccccc1)NC(=O)[C@@H](NC(=O)[C@H](C)NC(=O)[C@H](CC(=O)O)NC(=O)[C@H](CO)NC(=O)[C@@H](N)Cc1c[nH]cn1)C(C)C)[C@@H](C)O)[C@@H](C)O)C(=O)N[C@@H](C)C(=O)N[C@H](C(=O)N[C@@H](CCCCN)C(=O)N[C@@H](CCCCN)C(=O)N[C@@H](Cc1ccc(O)cc1)C(=O)N[C@@H](CC(C)C)C(=O)N[C@@H](CC(N)=O)C(=O)N[C@@H](CO)C(=O)N[C@H](C(=O)N[C@@H](CC(C)C)C(=O)N[C@@H](CC(N)=O)C(N)=O)[C@@H](C)CC)C(C)C [(Orn^12, Nle^17)--VIP, (Orn^12, Nle^17)VIP] | 200 | 5e-09 | 195 |
| CCCC[C@H](NC(=O)[C@H](CCC(N)=O)NC(=O)[C@H](CCCCN)NC(=O)[C@H](CCCNC(=N)N)NC(=O)[C@H](CC(C)C)NC(=O)[C@H](CCCCN)NC(=O)[C@@H](NC(=O)[C@H](Cc1ccc(O)cc1)NC(=O)[C@H](CC(N)=O)NC(=O)[C@H](CC(=O)O)NC(=O)[C@@H](NC(=O)[C@H](Cc1ccccc1)NC(=O)[C@@H](NC(=O)[C@H](C)NC(=O)[C@H](CC(=O)O)NC(=O)[C@H](CO)NC(=O)[C@H](Cc1c[nH]cn1)NC(C)=O)C(C)C)[C@@H](C)O)[C@@H](C)O)C(=O)N[C@@H](C)C(=O)N[C@H](C(=O)N[C@@H](CCCCN)C(=O)N[C@@H](CCCCN)C(=O)N[C@@H](Cc1ccc(O)cc1)C(=O)N[C@@H](CC(C)C)C(=O)N[C@@H](CC(N)=O)C(=O)N[C@@H](CO)C(=O)N[C@H](C(=O)N[C@@H](CC(C)C)C(=O)N[C@@H](CC(N)=O)C(N)=O)[C@@H](C)CC)C(C)C [Ac--(Lys^12, Nle^17)--VIP, Ac-(Lys^12, Nle^17)VIP] (HELM PEPTIDE1{[ac].H.S.D.A.V.F.T.D.N.Y.T.K.L.R.K.Q.[Nle].A.V.K.K.Y.L.N.S.I.L.N.[am]}$$$$V2.0) | 67 | 1.5e-08 | – |
| CCCC[C@H](NC(=O)[C@H](CCC(N)=O)NC(=O)[C@H](CCCCN)NC(=O)[C@H](CCCNC(=N)N)NC(=O)[C@H](Cc1ccccc1)NC(=O)[C@H](CCCNC(=N)N)NC(=O)[C@H](CO)NC(=O)[C@H](Cc1ccc(O)cc1)NC(=O)[C@H](CC(N)=O)NC(=O)[C@H](CC(=O)O)NC(=O)[C@@H](NC(=O)[C@H](Cc1ccccc1)NC(=O)[C@@H](NC(=O)[C@H](C)NC(=O)[C@H](CC(=O)O)NC(=O)[C@H](CO)NC(=O)[C@H](Cc1c[nH]cn1)NC(C)=O)C(C)C)[C@@H](C)O)C(=O)N[C@@H](C)C(=O)N[C@H](C(=O)N[C@@H](CCCCN)C(=O)N[C@@H](CCCCN)C(=O)N[C@@H](Cc1ccc(O)cc1)C(=O)N[C@@H](CC(C)C)C(=O)N[C@@H](CC(N)=O)C(=O)N[C@@H](CO)C(=O)N[C@H](C(=O)N[C@@H](CC(C)C)C(=O)N[C@@H](CC(N)=O)C(N)=O)[C@@H](C)CC)C(C)C [Ac--(Ser^11, Phe^13, Nle^17)--VIP, Ac-(Ser^11, Phe^13, Nle^17)VIP] (HELM PEPTIDE1{[ac].H.S.D.A.V.F.T.D.N.Y.S.R.F.R.K.Q.[Nle].A.V.K.K.Y.L.N.S.I.L.N.[am]}$$$$V2.0) | 45 | 2.2e-08 | – |

Source: US4605641A, “Synthetic vasoactive intestinal peptide analogs” (Hoffmann-La Roche Inc., priority 1984, dated 1986)
